Active and inactive are the calls of the source.
What was measured:
[1] = molecular target: Cytochrome P450 2C19 (Homo sapiens, UniProt P33261); experiment: Cytochrome panel assay with activity outcomes. Panel member name: p450-cyp2c19 Compounds with AC50 equal or less than 10 uM are considered active; format: functional
[2] = molecular target: T1, Heat shock factor protein 1 (Mus musculus, UniProt P38532); experiment: inhibition of MG132-induced HSE-luciferase signal, confirmation, cell-based, NIH3T3, luminescence, dose retest (AID 2382); format: functional;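 further: NIH3T3 fibroblasts with HSF1-driven luciferase reporter stressed by proteasome inhibitor MG132; luminescence from HSF1-driven luciferase expression after 8 hours of MG132 stress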
T1 sequence (P38532 whole entry): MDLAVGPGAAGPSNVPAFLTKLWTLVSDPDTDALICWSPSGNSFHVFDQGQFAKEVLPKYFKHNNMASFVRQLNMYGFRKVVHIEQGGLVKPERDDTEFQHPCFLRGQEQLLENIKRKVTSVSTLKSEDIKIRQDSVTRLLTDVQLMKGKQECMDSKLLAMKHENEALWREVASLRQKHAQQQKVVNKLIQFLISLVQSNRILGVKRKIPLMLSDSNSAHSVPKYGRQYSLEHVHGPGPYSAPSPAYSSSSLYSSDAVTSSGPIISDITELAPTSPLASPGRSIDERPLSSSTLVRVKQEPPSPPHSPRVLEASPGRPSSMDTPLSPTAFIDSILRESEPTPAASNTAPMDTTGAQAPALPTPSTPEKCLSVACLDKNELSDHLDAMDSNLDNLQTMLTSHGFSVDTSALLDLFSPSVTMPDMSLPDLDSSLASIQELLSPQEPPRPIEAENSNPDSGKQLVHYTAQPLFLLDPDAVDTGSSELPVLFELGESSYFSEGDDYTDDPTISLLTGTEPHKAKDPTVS

[3] = molecular target: T2, Replicative DNA helicase DnaB (Mycobacterium tuberculosis, UniProt P9WMR3); experiment: DnaB intein splicing inhibitors, dose response, biochemical, cell-free fluorescence (AID 449749); format: functional
T2 sequence (P9WMR3 whole entry): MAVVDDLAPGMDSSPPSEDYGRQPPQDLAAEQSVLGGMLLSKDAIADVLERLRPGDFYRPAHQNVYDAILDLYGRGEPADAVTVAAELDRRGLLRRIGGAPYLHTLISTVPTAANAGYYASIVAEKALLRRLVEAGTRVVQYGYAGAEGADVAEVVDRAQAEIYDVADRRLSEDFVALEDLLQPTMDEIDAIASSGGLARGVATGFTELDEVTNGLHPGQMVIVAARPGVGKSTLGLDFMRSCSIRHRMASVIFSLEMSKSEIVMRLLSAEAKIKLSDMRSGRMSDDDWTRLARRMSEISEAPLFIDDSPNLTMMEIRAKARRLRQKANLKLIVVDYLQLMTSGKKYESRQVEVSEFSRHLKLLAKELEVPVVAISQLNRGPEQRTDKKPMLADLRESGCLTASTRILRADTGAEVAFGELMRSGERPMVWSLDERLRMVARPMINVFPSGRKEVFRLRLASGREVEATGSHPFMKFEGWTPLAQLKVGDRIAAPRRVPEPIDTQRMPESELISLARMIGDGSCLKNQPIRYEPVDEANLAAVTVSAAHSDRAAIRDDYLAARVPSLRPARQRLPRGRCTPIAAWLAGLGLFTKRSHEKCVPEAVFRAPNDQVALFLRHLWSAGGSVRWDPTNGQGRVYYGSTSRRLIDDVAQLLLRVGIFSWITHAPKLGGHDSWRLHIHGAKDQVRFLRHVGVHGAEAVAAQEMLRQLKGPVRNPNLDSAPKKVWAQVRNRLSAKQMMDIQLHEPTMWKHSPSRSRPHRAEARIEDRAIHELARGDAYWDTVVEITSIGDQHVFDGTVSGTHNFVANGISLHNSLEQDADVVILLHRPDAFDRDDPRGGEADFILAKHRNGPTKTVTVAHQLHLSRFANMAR

[4] = molecular target: T3, Protein RecA (Mycobacterium tuberculosis, UniProt P9WHJ3); experiment: Fluorescence Cell-Free Homogeneous Dose Retest to Identify Inhibitors of RecA-Intein Splicing Activity. [Related pubchem assays (depositor defined):AID2097, AID2223, AID489010, AID492950]; format: functional
T3 sequence (P9WHJ3 whole entry): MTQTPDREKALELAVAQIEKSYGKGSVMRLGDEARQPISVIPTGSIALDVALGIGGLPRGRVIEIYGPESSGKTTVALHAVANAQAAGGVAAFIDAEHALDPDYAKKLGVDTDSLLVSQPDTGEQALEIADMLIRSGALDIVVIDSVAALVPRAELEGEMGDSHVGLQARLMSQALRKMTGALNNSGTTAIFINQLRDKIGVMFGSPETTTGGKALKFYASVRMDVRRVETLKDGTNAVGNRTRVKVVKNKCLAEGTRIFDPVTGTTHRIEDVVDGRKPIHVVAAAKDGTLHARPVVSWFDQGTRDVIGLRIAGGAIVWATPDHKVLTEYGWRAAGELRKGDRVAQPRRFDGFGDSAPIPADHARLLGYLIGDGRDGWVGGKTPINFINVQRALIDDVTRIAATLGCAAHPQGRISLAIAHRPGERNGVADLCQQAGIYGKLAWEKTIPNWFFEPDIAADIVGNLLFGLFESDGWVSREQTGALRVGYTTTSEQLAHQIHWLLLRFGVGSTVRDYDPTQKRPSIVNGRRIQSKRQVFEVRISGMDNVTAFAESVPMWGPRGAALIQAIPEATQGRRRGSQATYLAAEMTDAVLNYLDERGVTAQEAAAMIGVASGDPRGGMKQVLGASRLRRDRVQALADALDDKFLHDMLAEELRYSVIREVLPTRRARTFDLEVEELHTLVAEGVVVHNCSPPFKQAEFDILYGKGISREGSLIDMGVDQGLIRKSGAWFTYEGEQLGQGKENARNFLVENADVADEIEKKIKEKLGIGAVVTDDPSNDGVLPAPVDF

[5] = molecular target: FAD-linked sulfhydryl oxidase ALR (Homo sapiens, UniProt P55789); experiment: inhibitors of human ALR sulfhydryl oxidase, dose response, biochemical, H2O2 detection, luminescence, cherry-pick (AID 493248)
Sequence of FAD-linked sulfhydryl oxidase ALR (P55789 whole entry): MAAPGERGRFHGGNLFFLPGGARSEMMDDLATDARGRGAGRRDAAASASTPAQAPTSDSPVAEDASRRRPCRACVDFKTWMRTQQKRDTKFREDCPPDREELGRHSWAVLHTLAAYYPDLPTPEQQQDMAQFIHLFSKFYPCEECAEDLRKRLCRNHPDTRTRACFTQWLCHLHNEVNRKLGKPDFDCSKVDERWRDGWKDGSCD

[6] = NIH-3T3 fibroblast cytotoxicity, dose response, cytotoxicity control, cell-based, fluorescence, Alamar Blue, secondary assay (AID 2327); format: functional;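 further: NIH-3T3 mouse fibroblasts cultured with fluconazole at 8 µg/mL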
[7] = C. albicans growth with fluconazole, confirmation, fluorescence, retest (AID 2467); format: functional, cell-based
[8] = molecular target: T4, Rac GTPase-activating protein 1 (Homo sapiens, UniProt Q9H0H5); experiment: MgcRacGAP GTPase-activating activity inhibitors, confirmation, biochemical, ADP Hunter fluorescence, primary and confirmatory (AID 624330); format: functional
T4 sequence (Q9H0H5 whole entry): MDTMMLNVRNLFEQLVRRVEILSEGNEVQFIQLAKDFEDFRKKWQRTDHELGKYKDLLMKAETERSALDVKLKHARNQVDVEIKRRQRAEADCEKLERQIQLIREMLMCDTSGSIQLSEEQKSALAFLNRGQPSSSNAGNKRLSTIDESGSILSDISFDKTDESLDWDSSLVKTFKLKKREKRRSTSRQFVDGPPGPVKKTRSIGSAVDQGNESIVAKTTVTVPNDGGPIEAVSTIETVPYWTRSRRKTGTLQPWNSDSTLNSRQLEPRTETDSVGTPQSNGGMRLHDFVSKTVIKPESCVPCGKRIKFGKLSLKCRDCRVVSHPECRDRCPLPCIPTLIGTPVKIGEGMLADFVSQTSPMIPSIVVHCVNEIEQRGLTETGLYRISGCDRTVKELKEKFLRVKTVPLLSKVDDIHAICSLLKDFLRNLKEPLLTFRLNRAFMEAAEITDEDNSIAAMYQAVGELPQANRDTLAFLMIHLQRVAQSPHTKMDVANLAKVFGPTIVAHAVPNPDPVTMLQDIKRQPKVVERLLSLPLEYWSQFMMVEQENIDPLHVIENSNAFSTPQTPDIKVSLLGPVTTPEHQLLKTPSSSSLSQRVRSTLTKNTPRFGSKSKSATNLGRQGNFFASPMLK

[9] = molecular target: Cytochrome P450 2C9 (Homo sapiens, UniProt P11712)
Sequence of Cytochrome P450 2C9 (P11712 whole entry): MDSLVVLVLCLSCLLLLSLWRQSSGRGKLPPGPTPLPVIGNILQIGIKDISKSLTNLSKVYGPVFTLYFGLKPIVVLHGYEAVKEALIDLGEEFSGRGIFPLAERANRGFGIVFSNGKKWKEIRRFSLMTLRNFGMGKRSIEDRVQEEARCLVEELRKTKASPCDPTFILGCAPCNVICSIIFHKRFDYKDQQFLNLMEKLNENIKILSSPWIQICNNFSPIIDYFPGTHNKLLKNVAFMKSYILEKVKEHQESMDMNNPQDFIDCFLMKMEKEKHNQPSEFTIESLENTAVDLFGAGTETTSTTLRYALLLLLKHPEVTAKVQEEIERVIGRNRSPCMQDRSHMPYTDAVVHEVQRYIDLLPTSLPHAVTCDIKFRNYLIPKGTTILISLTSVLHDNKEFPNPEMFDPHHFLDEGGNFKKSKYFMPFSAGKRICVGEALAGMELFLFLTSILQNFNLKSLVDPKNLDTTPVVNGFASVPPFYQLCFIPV

[10] = Shn3 3'UTR reporter inhibitors, dose response, cell-based, Clone20 osteoblasts, firefly luciferase, cherry-picked (AID 624132); format: functional;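 further: firefly luciferase luminescence from reporter carrying the Shn3 3'UTR in osteoblasts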

Sequence of Cytochrome P450 2C19 (P33261 whole entry): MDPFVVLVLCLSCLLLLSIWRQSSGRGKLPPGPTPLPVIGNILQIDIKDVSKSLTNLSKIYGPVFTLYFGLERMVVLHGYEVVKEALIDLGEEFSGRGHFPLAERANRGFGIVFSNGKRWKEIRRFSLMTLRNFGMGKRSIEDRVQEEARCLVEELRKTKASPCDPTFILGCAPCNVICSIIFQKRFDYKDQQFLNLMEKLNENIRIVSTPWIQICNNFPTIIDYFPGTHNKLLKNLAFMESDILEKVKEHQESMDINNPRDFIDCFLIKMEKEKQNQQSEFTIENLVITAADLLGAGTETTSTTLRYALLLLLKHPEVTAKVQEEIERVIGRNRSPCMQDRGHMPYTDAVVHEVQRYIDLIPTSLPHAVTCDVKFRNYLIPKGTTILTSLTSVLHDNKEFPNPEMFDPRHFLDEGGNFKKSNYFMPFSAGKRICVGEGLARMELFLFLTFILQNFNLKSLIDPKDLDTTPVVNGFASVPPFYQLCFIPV

Cc1cc(=O)oc(C)c1C(=O)NCc1ccccc1
AC50 ([1]; read-out: AC50): 39.8 µM (inconclusive)

Cc1ccc(NC(=O)CCN2C(=O)C3CCCCC3C2=O)cc1[N+](=O)[O-] (stereo not given)
EC50 [2]: > 195 µM (not active)

COc1nc(NC(C)C)nc(N(C#N)CN2C(=O)c3ccccc3S2(=O)=O)n1
AC50 [3]: 24.4 µM (active)
EC50 [4]: 26.4 µM (inconclusive)

Cc1ccc(S(=O)(=O)c2ccc(Oc3ccccc3)cc2)cc1
EC50 [2]: 21.5 µM (active)

N=C(NC(=O)c1ccc(Cl)cc1)Nc1nc2ccccc2o1
EC50 [2]: > 195 µM (not active)

CCS(=O)(=O)c1nc(S(=O)(=O)c2ccc(C)cc2)c(N2CCC(C)CC2)s1
EC50 [2]: > 195 µM (not active)

O=C(CNC1=NCCC1)c1ccc(Cl)cc1
AC50 [3]: 127 µM (active)
EC50 [4]: 23.1 µM (active)

O=C(CN1CCN(c2ccccc2O)CC1)Nc1cccnc1Cl
AC50 [5]: 2.17 µM (active)

Cc1ccc(NNC(=O)c2ccno2)cc1C
EC50 [6]: > 160 µM (inactive)
EC50 [7]: 0.763 µM (active)
AC50 [5]: 0.439 µM (active)

CN(CC(=O)Nc1ccccc1Br)C(=O)c1cccn1C
EC50 [2]: > 195 µM (not active)

CC(=O)Nc1ccc(S(=O)(=O)NC(C)C(=O)NCCc2ccc(F)cc2)cc1 (stereo not given)
AC50 [5]: 0.031 µM (active)

CC(=O)N1CC[n+]2c(-c3ccc(Cl)cc3)csc21
AC50 [5]: 1.88 µM (active)

CN(C)NC(=O)c1ccsc1NC(=O)c1ccc(S(=O)(=O)N2CCCC2)cc1
AC50 [5]: 0.835 µM (active)

C/C(=C\c1ccc(N)cc1)c1nc2ccccc2[nH]1
AC50 [5]: 0.321 µM (active)

O=C(NN=Cc1ccc(O)cc1)c1cc[n+](Cc2ccccc2)cc1
AC50 [5]: 2.05 µM (active)
IC50 [8]: 137 µM (active)

COc1cccc(NC(=S)N(CCC(C)C)C2CCN(C(C)=O)CC2)c1
EC50 [2]: > 195 µM (not active)

COc1ccccc1/C=C/C1(C(=O)NC2CCCC2)CC(=O)N1c1ccc(C)cc1 (stereo not given)
AC50 [3]: 9.29 µM (active)
EC50 [4]: 8.52 µM (active)

COc1ccc2nc(O)c(CN(Cc3cccs3)S(=O)(=O)c3c(C)ccc4nsnc34)cc2c1
EC50 [2]: 0.503 µM (active)

CCS(=O)(=O)N1CCC(C(=O)NCc2cccnc2)CC1
AC50 [9]: 11.2 µM (inconclusive)
AC50 ([1]; read-out: AC50): 22.4 µM (inconclusive)

Cc1cc(N=Nc2ccc(Cl)cc2)cc(CN2CCCC2)c1O
EC50 [2]: > 195 µM (not active)

CC(=O)c1cccc(NC(=O)CSc2ncc(C(=O)Nc3ccccc3)c(=O)n2C)c1
AC50 [3]: > 380 µM (inconclusive)
EC50 [4]: 1.21 µM (active)

CCOC(=O)N1CCN(C(=O)CSCc2ccc(Cl)cc2)CC1
AC50 ([1]; read-out: AC50): 17.8 µM (inconclusive)

O=C(Cc1ccccc1F)Nc1nc2ccccc2[nH]1
AC50 [3]: 0.0489 µM (inconclusive)
EC50 [4]: > 380 µM (inconclusive)

CCOC(=O)C(C)c1ccc2cc(OC)ccc2c1 (stereo not given)
EC50 [2]: > 195 µM (not active)

CC(C)NS(=O)(=O)c1ccc(OCC(=O)N2CCCC2)c(Cl)c1
EC50 [2]: > 195 µM (not active)

CN(C)c1ccc(NC(=O)CN2CCc3ccccc3C2)cc1
AC50 [5]: 2.23 µM (active)

Fc1ccc(Sc2nc(-c3ccccc3)nnc2C(F)(F)F)cc1
AC50 [3]: 1.45 µM (active)
EC50 [4]: 0.66 µM (active)

COc1ccc(C(=O)Nc2ccncc2)cc1[N+](=O)[O-]
AC50 [3]: > 380 µM (inactive)
EC50 [4]: > 380 µM (inactive)

O=C(c1ccc2c(c1)OCO2)N1CCC2(CC1)OCCO2
EC50 [2]: > 195 µM (not active)

CCSc1nnc(NC(=O)c2cccc(S(=O)(=O)N(C)c3ccccc3)c2)s1
AC50 [5]: 2.75 µM (active)

CC(NS(C)(=O)=O)C(c1cccs1)N1CCN(c2ccccc2)CC1 (stereo not given)
AC50 [5]: 2.93 µM (active)

Cc1ccc(C(c2c(C)n[nH]c2O)c2c(C)n[nH]c2O)cc1[N+](=O)[O-]
AC50 [3]: 0.442 µM (active)
EC50 [4]: 0.195 µM (active)

O=C1CCc2cccc(O)c2N1
AC50 [10]: 12.2 µM (active)

CCc1n[nH]c2c1C(c1ccsc1)C(C#N)=C(N)O2 (stereo not given)
AC50 [3]: 14.5 µM (active)
EC50 [4]: 9.87 µM (active)

CCC(=O)Oc1oc(-c2ccccc2)nc1/C=N/c1ccccc1OC
EC50 [2]: 10.3 µM (active)

Cn1ccnc1 [1-METHYLIMIDAZOLE]
AC50 [1]: inconclusive

O=C(O)c1c2ccccc2cc2ccccc12 [ANTHRACENE-9-CARBOXYLIC ACID]
AC50 ([1]; read-out: AC50): 25.1 µM (inconclusive)

Source: ChEMBL document CHEMBL1201862, “PubChem BioAssay data set” (2004)
